Assay results reported in ChEMBL document CHEMBL5291721, “A preclinical secondary pharmacology resource illuminates target-adverse drug reaction associations of marketed drugs” (Nat Commun, 2023).

How the values were obtained:
[1] = molecular target: T1, Adenosine receptor A1 (Homo sapiens, UniProt P30542)
T1 sequence (P30542 whole entry): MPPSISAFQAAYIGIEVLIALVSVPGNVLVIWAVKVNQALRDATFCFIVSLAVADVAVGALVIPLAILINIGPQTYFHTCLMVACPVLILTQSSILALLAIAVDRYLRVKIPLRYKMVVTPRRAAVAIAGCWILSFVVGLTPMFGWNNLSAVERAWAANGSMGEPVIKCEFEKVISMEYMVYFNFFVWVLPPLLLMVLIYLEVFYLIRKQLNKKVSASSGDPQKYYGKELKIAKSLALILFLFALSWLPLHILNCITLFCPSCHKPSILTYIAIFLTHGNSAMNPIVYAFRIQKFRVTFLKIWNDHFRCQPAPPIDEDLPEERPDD

[2] = molecular target: T2, Adenosine receptor A3 (Homo sapiens, UniProt P0DMS8)
T2 sequence (P0DMS8 whole entry): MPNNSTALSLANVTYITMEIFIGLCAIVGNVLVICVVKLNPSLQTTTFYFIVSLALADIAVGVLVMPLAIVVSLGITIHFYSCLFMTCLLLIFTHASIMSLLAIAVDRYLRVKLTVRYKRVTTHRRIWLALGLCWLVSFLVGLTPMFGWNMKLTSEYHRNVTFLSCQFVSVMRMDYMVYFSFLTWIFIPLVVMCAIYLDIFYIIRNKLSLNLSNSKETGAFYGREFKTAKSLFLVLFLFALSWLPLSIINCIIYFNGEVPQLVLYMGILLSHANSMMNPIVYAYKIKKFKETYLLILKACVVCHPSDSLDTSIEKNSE

[3] = molecular target: T3, Alpha-2A adrenergic receptor (Homo sapiens, UniProt P08913); type: functional, cell-based
T3 sequence (P08913 whole entry): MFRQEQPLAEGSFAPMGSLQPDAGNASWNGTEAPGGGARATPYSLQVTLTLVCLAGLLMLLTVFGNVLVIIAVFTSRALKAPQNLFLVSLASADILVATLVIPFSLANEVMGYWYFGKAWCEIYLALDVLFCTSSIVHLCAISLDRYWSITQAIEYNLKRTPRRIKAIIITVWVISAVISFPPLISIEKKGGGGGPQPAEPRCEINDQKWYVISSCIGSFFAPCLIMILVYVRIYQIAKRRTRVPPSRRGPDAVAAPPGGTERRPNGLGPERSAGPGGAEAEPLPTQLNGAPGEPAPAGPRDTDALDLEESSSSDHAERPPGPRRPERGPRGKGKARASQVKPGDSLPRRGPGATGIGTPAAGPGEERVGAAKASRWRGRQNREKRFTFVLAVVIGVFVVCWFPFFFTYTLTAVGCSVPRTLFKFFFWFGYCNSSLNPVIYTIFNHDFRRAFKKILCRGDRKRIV

[4] = molecular target: Vasopressin V2 receptor (Homo sapiens, UniProt P30518)
Chain of Vasopressin V2 receptor (P30518 whole entry): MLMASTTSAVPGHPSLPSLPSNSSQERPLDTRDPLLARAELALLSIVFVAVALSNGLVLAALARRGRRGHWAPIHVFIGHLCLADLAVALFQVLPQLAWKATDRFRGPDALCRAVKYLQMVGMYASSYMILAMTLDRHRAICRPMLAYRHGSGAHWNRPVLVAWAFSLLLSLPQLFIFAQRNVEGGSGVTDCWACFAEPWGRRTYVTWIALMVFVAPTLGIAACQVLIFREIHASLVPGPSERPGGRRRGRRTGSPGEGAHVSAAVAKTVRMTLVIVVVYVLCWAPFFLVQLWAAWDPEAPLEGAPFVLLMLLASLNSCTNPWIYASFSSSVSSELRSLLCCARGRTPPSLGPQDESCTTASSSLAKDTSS

[5] = molecular target: T4, 5-hydroxytryptamine receptor 1A (Homo sapiens, UniProt P08908); type: functional, cell-based
T4 sequence (P08908 whole entry): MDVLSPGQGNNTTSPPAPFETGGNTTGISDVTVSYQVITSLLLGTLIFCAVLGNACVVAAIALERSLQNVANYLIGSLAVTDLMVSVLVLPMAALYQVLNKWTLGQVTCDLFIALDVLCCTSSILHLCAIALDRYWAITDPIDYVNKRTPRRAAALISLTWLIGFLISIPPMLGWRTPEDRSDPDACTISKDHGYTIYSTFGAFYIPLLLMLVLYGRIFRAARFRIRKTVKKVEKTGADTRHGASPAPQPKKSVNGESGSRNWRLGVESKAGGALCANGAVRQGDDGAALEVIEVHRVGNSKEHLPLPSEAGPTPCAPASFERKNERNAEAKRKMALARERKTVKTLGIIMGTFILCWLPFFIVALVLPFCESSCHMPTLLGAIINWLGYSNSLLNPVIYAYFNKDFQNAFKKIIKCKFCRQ

[6] = molecular target: Melanocortin receptor 3 (Homo sapiens, UniProt P41968)
Chain of Melanocortin receptor 3 (P41968 whole entry): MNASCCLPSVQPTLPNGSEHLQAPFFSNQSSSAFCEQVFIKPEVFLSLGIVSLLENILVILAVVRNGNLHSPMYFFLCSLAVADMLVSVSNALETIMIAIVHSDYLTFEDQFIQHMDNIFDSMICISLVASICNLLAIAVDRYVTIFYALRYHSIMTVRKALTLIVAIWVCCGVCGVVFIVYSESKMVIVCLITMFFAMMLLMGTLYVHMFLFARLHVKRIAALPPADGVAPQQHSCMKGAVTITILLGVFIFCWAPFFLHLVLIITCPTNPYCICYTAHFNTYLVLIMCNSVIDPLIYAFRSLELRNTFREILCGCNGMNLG

[7] = molecular target: 3',5'-cyclic-AMP phosphodiesterase 4D (Homo sapiens, UniProt Q08499); type: functional
Chain of 3',5'-cyclic-AMP phosphodiesterase 4D (Q08499 whole entry): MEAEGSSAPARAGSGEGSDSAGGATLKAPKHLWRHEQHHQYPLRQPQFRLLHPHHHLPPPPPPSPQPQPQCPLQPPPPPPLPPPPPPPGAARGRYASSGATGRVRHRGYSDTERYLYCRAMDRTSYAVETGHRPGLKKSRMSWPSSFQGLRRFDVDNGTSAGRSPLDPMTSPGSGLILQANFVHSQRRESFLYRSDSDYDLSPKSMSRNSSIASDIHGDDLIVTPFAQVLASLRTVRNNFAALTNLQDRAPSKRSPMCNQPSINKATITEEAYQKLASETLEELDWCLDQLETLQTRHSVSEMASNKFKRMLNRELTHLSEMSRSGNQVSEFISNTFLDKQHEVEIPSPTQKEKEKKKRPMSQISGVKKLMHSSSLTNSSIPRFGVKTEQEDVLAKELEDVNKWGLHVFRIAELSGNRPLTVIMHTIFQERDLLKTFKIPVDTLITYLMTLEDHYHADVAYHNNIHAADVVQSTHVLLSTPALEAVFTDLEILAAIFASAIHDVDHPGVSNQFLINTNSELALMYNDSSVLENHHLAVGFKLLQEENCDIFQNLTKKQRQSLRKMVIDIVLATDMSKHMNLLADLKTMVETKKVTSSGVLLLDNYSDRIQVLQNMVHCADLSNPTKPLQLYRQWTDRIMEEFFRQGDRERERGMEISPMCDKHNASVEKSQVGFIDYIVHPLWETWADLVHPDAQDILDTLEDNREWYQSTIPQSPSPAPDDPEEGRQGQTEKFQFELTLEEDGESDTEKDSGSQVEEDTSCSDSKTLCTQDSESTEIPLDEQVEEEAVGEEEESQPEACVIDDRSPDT

[8] = molecular target: T5, Progesterone receptor (Homo sapiens, UniProt P06401); type: functional
T5 sequence (P06401 whole entry): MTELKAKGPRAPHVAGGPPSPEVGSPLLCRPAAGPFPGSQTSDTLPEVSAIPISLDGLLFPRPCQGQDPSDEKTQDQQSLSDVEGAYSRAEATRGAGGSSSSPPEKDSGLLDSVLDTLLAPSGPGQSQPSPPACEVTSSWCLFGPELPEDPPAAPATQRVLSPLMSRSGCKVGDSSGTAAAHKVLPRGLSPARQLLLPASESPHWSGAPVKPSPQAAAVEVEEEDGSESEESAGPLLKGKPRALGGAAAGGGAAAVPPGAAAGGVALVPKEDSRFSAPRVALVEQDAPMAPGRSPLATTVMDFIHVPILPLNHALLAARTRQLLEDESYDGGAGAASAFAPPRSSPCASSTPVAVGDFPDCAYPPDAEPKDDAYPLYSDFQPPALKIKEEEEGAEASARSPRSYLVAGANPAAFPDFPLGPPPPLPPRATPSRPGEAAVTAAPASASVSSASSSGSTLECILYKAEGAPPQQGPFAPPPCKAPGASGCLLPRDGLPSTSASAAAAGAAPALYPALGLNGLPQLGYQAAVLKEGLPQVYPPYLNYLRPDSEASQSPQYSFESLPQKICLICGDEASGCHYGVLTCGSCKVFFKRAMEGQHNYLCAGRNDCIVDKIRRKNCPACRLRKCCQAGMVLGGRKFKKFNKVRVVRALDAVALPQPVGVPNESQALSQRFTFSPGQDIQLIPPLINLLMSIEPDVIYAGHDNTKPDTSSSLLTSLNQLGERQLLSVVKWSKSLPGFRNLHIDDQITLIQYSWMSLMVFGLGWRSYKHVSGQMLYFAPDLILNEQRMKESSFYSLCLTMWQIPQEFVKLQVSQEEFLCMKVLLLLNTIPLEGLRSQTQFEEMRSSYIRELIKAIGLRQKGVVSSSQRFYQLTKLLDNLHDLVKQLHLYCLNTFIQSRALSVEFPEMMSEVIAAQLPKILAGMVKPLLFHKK

[9] = molecular target: Cannabinoid receptor 1 (Homo sapiens, UniProt P21554); type: functional, cell-based
Chain of Cannabinoid receptor 1 (P21554 whole entry): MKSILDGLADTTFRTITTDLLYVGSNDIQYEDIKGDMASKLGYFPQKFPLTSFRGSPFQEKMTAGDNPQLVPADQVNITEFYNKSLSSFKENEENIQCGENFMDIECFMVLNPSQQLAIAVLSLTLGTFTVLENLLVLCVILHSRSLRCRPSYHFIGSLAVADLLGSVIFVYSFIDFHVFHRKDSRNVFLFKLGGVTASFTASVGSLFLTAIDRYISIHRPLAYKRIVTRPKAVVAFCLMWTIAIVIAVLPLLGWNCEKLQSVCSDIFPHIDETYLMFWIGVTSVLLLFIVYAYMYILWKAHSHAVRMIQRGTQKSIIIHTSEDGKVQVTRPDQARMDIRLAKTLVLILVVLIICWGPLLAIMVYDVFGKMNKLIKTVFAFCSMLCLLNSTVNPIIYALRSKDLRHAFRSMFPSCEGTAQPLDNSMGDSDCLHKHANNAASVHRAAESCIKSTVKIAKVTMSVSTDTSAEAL

[10] = molecular target: Sodium-dependent dopamine transporter (Homo sapiens, UniProt Q01959)
Chain of Sodium-dependent dopamine transporter (Q01959 whole entry): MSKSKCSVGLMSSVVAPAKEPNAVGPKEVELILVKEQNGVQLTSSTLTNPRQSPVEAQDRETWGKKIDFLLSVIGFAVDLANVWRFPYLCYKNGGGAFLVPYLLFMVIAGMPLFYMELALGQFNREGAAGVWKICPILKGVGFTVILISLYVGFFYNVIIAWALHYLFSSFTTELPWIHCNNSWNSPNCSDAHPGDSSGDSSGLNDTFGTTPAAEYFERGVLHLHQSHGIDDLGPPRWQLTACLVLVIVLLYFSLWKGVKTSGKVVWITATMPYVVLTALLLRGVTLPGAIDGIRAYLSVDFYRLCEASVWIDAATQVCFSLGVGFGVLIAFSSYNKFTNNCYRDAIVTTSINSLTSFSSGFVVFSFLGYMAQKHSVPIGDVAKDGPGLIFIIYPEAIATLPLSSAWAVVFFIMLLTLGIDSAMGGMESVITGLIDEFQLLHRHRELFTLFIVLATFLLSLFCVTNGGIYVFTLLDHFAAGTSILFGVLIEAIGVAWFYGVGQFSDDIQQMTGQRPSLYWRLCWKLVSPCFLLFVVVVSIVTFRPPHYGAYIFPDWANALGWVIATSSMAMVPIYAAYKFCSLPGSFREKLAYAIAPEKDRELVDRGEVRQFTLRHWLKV
Note: assay procedure not described here.

Row | Compound | AC50 [1] [µM] | AC50 [2] [µM] | AC50 [3] [µM] | AC50 [4] [µM] | AC50 [5] [µM] | AC50 [6] [µM] | AC50 [7] [µM] | AC50 [8] [µM] | AC50 [9] [µM] | AC50 [10] [µM]
1 | CC1(C)C(/C=C/C=C/C=C/C=C2\N(CCCCS(=O)(=O)O)c3ccc4ccccc4c3C2(C)C)=[N+](CCCCS(=O)(=O)[O-])c2ccc3ccccc3c21 [INDOCYANINE GREEN ACID FORM] | 22 | 3 | > 30 | > 30 | > 30 | > 30 | 2.3 | > 30 | – | –
2 | CCCC[C@H](C)C[C@H](O)/C=C/[C@H]1[C@H](O)CC(=O)[C@@H]1CCCC/C=C/C(=O)O [LIMAPROST] | > 30 | > 30 | > 30 | > 30 | – | > 30 | > 30 | > 30 | > 30 | > 30
3 | Cc1ccc(NC(=O)C2(c3ccc4c(c3)OC(F)(F)O4)CC2)nc1-c1cccc(C(=O)O)c1 [LUMACAFTOR] | > 30 | 15 | > 30 | > 30 | > 30 | > 30 | 15 | > 30 | > 30 | > 30
4 | CCOC(=O)Nc1ccc2c(c1)N(C(=O)CCN1CCOCC1)c1ccccc1S2 [MORICIZINE] | > 30 | > 30 | > 30 | > 30 | 13 | > 30 | 0.77 | > 30 | > 30 | > 30
5 | COc1ccc(C(CN(C)C)C2(O)CCCCC2)cc1 (centres undefined) [VENLAFAXINE] | > 30 | > 30 | > 10 | > 30 | > 30 | > 30 | > 10 | – | – | –
6 | COLISTIN | – | – | > 30 | – | > 30 | – | > 30 | – | > 30 | –

Second part, the compound after the results:

Row | AC50 [1] [µM] | AC50 [2] [µM] | AC50 [3] [µM] | AC50 [4] [µM] | AC50 [5] [µM] | AC50 [6] [µM] | AC50 [7] [µM] | AC50 [8] [µM] | AC50 [9] [µM] | AC50 [10] [µM] | Compound
7 | > 30 | > 30 | > 30 | > 30 | > 30 | > 30 | > 30 | > 30 | > 30 | > 30 | CCn1cc(C(=O)O)c(=O)c2cc(F)c(N3CCN(C)CC3)cc21 [PEFLOXACIN]
8 | – | – | > 30 | – | – | – | 24 | – | > 30 | – | C[n+]1ccccc1/C=N/O [PRALIDOXIME]
9 | – | > 3 | – | – | – | > 3 | 27 | > 3 | – | 2.6 | COc1cc2nccc(Oc3ccc(NC(=O)Nc4cc(C)on4)c(Cl)c3)c2cc1OC [TIVOZANIB]
10 | > 30 | > 30 | > 30 | > 30 | > 30 | > 30 | > 30 | – | – | > 30 | N#C[C@@H]1CCCN1C(=O)CNC12CC3CC(CC(O)(C3)C1)C2 [VILDAGLIPTIN]
